The series in a line: Permeability test with stationary Franz diffusion cell and human skin. In kind it is in vitro ADME. The procedure:
The intramembrane concentrations of various water-soluble agents in the epidermis and dermis after 24 hours were measured using the following conditions and methods with a stationary Franz diffusion cell and human skin.
• Cell type: Stationary Franz diffusion cell (manufactured by Biocom Systems, Inc.) • Receptor well volume: 3.3 mL • Target skin area: 0.55 cm^2 • Membrane type: Human skin having a thickness of 300 μm (acquired from New York Firefighter's Skin Bank, Science Care, Allosource, or BioIVT) • Number of skin donors: 1 individual • Details of donors: Gender: male or female; age: from 30 to 70 years old; site: thigh or upper torso • Receptor fluid: Phosphate buffered saline (PBS) containing 0.01% w/w NaN3 (preservative)
The concentrations of water-soluble agents were measured in the receptor chamber of the diffusion cell at different time points. At the end of the diffusion test, the skin was sequentially tape-stripped and divided into epidermal and dermal layers. Concentrates of various water-soluble agents in each of the grouped tape strips and epidermal and dermal tissues were extracted using an extraction solvent and analyzed on an Agilent G6120 HPLC system equipped with an LC-MS detector.
The obtained skin was cryopreserved in a freezer at −20° C. until the morning of the test. Before use, the skin was removed from the freezer and completely thawed at room temperature. Only visually intact areas of the skin were used during testing.
The receptor fluid was prepared at the appropriate pH and degassed by filtering the receptor fluid through a ZapCap (registered trademark) CR 0.2 μm membrane while vacuuming.
The diffusion cell was assembled according to (1) to (10) below. […]
Once the cell was assembled and the skin was hydrated for 20 minutes, a tritiated water test was performed to assess the barrier integrity of each skin piece before applying the test sample to the skin. Skin barrier integrity was evaluated according to (a) to (i) below. […]

Peptide text beside a SMILES is read from it.

`NC(=O)c1cccnc1` [nicotinic acid amide, reference compound]: the Skin permeability result (dosage form of the second agent is a water-in-oil emulsion composition) was “skin permeability is further improved”.

As for `NCC(=O)NCC(=O)O` [glycylglycine] (H-Gly-Gly-OH), the Skin permeability entry (dosage form of the second agent is an oil-in-water emulsion composition) is on record as “skin permeability is further improved”.

`COc1ccc(C(=O)[O-])c(O)c1.[K+]` [potassium 4-methoxysalicylate]: the “Distribution in the skin when it permeates the skin” value (from body-correcting-film forming agent, Table 1) is recorded as “tends to remain in the epidermis”.

(Values after US20240358624A1, “APPLICATION TYPE BODY-CORRECTING-FILM FORMING AGENT” (SHISEIDO COMPANY, LTD., priority 2021, published 2024).)
